According to the NIST ThermoML archive (doi:10.1016/j.tca.2013.05.030):

Assay: mn = molality of the nth substance listed, in mol/kg
Settings: 101 kPa, Liquid; for viscosity: Capillary tube (Ostwald / Ubbelohde) method; for mass density: Pycnometric method; for speed of sound: Sing-around technique in a fixed-path interferometer

CC(C)Cc1ccc(C(C)C(=O)[O-])cc1.[Na+] (stereo not given) [sodium ibuprofen] + O
Settings | mass density [kg/m3] | speed of sound [m/s] | viscosity [mPa·s]
298.15 K, m1 = 0.1048 | 1001.4 | 1512.8 | 0.973
298.15 K, m1 = 0.1525 | 1003.2 | 1518.4 | 1.007
298.15 K, m1 = 0.2231 | 1005.8 | 1525.6 | 1.07
298.15 K, m1 = 0.3179 | 1009.1 | 1533.2 | 1.173
298.15 K, m1 = 0.3721 | 1010.9 | 1536.4 | 1.242
298.15 K, m1 = 0.4422 | 1013.1 | 1540 | 1.342
298.15 K, m1 = 0.4678 | 1013.9 | 1540.8 | 1.381
303.15 K, m1 = 0.1048 | 999.9 | 1523.6 | 0.867
303.15 K, m1 = 0.1525 | 1001.7 | 1528.4 | 0.897
303.15 K, m1 = 0.2231 | 1004.3 | 1534.4 | 0.953
303.15 K, m1 = 0.3179 | 1007.5 | 1540.8 | 1.043
303.15 K, m1 = 0.3721 | 1009.3 | 1543.2 | 1.104
303.15 K, m1 = 0.4422 | 1011.5 | 1546.4 | 1.194
303.15 K, m1 = 0.4678 | 1012.3 | 1547.2 | 1.228
308.15 K, m1 = 0.1048 | 998.2 | 1532 | 0.78
308.15 K, m1 = 0.1525 | 1000 | 1536.4 | 0.808
308.15 K, m1 = 0.2231 | 1002.5 | 1542 | 0.857
308.15 K, m1 = 0.3179 | 1005.7 | 1548 | 0.937
308.15 K, m1 = 0.3721 | 1007.4 | 1550.8 | 0.992
308.15 K, m1 = 0.4422 | 1009.6 | 1553.6 | 1.072
308.15 K, m1 = 0.4678 | 1010.4 | 1554.4 | 1.104
313.15 K, m1 = 0.1048 | 996.3 | 1539.2 | 0.707
313.15 K, m1 = 0.1525 | 998 | 1542.8 | 0.732
313.15 K, m1 = 0.2231 | 1000.5 | 1547.6 | 0.777
313.15 K, m1 = 0.3179 | 1003.6 | 1552.8 | 0.848
313.15 K, m1 = 0.3721 | 1005.3 | 1555.2 | 0.898
313.15 K, m1 = 0.4422 | 1007.4 | 1557.2 | 0.969
313.15 K, m1 = 0.4678 | 1008.1 | 1558 | 0.997

O [water] + CC(C)Cc1ccc(C(C)C(=O)[O-])cc1.[Na+]
Settings | speed of sound [m/s]
313.15 K, m2 = 0 | 1528.8
